Data taken from US9629883B2, “Anticaries compositions and probiotics/prebiotics” (CENTRO SUPERIOR DE INVESTIGACIÓN EN SALUD PÚBLICA (CSISP), priority 2010, dated 2017).
Bridges are numbered along the chain shown (N, C = ends). Where no end group is shown, it is not given here.

Assays:
S. mutans = assay: Growth curves (optical density) of S. mutans in liquid BHI culture; type: cell-based, Streptococcus mutans
Protocol: Subsequently, 50-, 100- and 150-μl volumes of these two fractions, 3-10 kD and 0-3 kD, respectively, were added to a liquid culture of S. mutans and to a liquid culture of S. sobrinus, and the optical density was measured in a 48-well Fluostar luminometer every half-hour, with each treatment in triplicate, for 12-19 hours. […]
In order to corroborate that the peptides identified are those responsible for the inhibitory activity against cariogenic bacteria, the S12E (bacteriocins of bacterial origin) and T5A (peptide of human origin with a structure similar to that of defensins) peptides were chemically synthesised, obtaining approximately 4 mg of each of said peptides with a purity greater than 80%. They were totally re-suspended in 0.1% trichloroacetic acid (TCA) and the experiments designed to test the inhibition of liquid cultures of S. mutans by said chemically-synthesised compounds were performed. […]

S. sobrinus = assay: Growth curves (optical density) of S. sobrinus in liquid BHI culture; type: cell-based, Streptococcus sobrinus; settings: chemically synthesised peptide, purity greater than 95%, re-suspended in ultrapure water, FIG. 6B
Protocol: Subsequently, […], respectively, were added to a liquid culture of S. mutans and to a liquid culture of S. sobrinus, and the optical density was measured in a 48-well Fluostar luminometer every half-hour, with each treatment in triplicate, for 12-19 hours.

For “S12E peptide: chemically synthesised bacteriocin-type anti-microbial peptide of bacterial origin, 39 amino acids, from S12E fosmid (MPFEAVGEARLAARTSRPGDRGPGNRAEESPDSAEQGGG; Streptococcus species)”, the “inhibitory activity against cultures of S. mutans” value (S. mutans; chemically synthesised peptide, purity greater than 80%, re-suspended in 0.1% TCA, FIG. 5) was “inhibitory activity against cultures of S. mutans was confirmed”, the “inhibitory effect on S. mutans” value (S. mutans; chemically synthesised peptide, purity greater than 95%, re-suspended in ultrapure water, FIG. 6A) was “dose-dependent inhibitory effect” and the “inhibitory effect on S. sobrinus” value (S. sobrinus) was “dose-dependent inhibitory effect”.

In the case of “T5A peptide: chemically synthesised defensin-type peptide of human origin, 26 amino acids; active form has disulfide bridge between cysteines 3 and 12 (MSCKKESLGSKCNYILLWYQPTESPH; disulfide 3-12; listed as Homo sapiens)”, the “inhibitory effect on liquid cultures of S. mutans” value (S. mutans; chemically synthesised peptide, first synthesis without disulfide bridge) is reported as “no inhibitory effect”, the “inhibition of the growth of S. mutans at maximum peptide concentration” value (S. mutans; synthesised peptide with disulfide bridge between cysteines 3 and 12, 80 μg) is reported as “total inhibition of the growth” and the “inhibition of the growth of S. mutans” value (S. mutans; synthesised peptide with disulfide bridge between cysteines 3 and 12, different concentrations, FIG. 7) is reported as “capable of inhibiting the growth”.
